Where “and” joins values, the source holds several entries; their conditions need not be identical. Identical values can stand only once. Like-named read-outs stand apart in the source and are kept apart here.

The values that follow come from publication PMC11855827, “High-Throughput Screening of Five Compound Libraries for Anthelmintic Activity and Toxicity Leads to the Discovery of Two Flavonoid Compounds” (International Journal of Molecular Sciences, 2025).

This experiment deals with C. elegans.
The mark [1] stands for this setting: Table S2, C. elegans SS assay, 110 μM, averages of 4 data points.
[2] abbreviates: Table S2, C. elegans SS assay, 110 μM, 24 h, averages of 4 data points.

`CC1(C)C[C@H]2C3=CC[C@@H]4[C@@]5(C)CC[C@H](O)[C@@](C)(CO)[C@@H]5CC[C@@]4(C)[C@]3(C)C[C@H](O)[C@@]2(CO)[C@@H](O)[C@@H]1O` [Gymnemagenin]: under setting [1], the “Percentage of motility inhibition 0 h” value was found to be 0%. Moreover, the “Percentage of motility inhibition 24 h” value under setting [2] stood at 52%.
The matching figures for `CNCC(O)c1ccc(O)cc1.Cl` (stereo not shown) [Synephrine (hydrochloride)]: 0% and 4%.
Take `O=c1cc(-c2ccccc2)oc2cc(O[C@@H]3O[C@H](CO[C@@H]4O[C@H](CO)[C@@H](O)[C@H](O)[C@H]4O)[C@@H](O)[C@H](O)[C@H]3O)c(O)c(O)c12` [Oroxin B]: the “Percentage of motility inhibition 0 h” value under setting [1] is recorded as 0%. Under setting [2], the “Percentage of motility inhibition 24 h” value is 0%.
As to `C[C@H](CC(=O)C[C@](C)(O)[C@@H]1CC(=O)[C@@]2(C)C3=C(C(=O)C[C@]12C)[C@@]1(C)CC[C@H](O)C(C)(C)[C@@H]1C[C@@H]3O)C(=O)O` [Ganoderic acid I], under setting [1], the “Percentage of motility inhibition 0 h” value amounted to 0%. The “Percentage of motility inhibition 24 h” value under setting [2] worked out at 11%.
The matching figures for `[N-]=[N+]=NCc1cccc(/C(O)=C/C(=O)C(=O)O)c1` [HIV‐1 integrase inhibitor]: 22% and 10%.
With `Nc1nc(=O)[nH]c2c1ncn2[C@@H]1O[C@H](CO)[C@@H](O)[C@H]1O` [Crotonoside], the “Percentage of motility inhibition 0 h” value under setting [1] turned out to be 0%. Moreover, the “Percentage of motility inhibition 24 h” value under setting [2] amounted to 0%.
As for `COC(=O)[C@H]1[C@H]2C[C@H]3c4[nH]c5ccccc5c4CCN3C[C@H]2CC[C@@H]1O.Cl` [Rauwolscine (hydrochloride)], the “Percentage of motility inhibition 0 h” value under setting [1] is recorded as 7%. Moreover, the “Percentage of motility inhibition 24 h” value under setting [2] is on record as 0%.
Turning to `Clc1ccc(COC(Cn2ccnc2)c2ccc(Cl)cc2Cl)cc1.O=[N+]([O-])O` (stereo not shown) [Econazole (nitrate)], the “Percentage of motility inhibition 0 h” value under setting [1] is 35%. Further, under setting [2], the “Percentage of motility inhibition 24 h” value was found to be 13%.
Turning to `O=c1cccc2n1C[C@@H]1CNC[C@H]2C1` [Cytisinicline], the “Percentage of motility inhibition 24 h” value (110 µM) was 0% and 3%.
As for `CC(C)=CCC[C@](C)(O)[C@@H]1CC=C(C)CC1` [alpha-Bisabolol], under setting [1], the “Percentage of motility inhibition 0 h” value is recorded as 1%. The “Percentage of motility inhibition 24 h” value under setting [2] was 6%.
The matching figures for `CC(=O)O[C@@]12CO[C@@H]1C[C@H](O[C@@H]1OC[C@@H](O)[C@H](O)[C@H]1O)[C@@]1(C)C(=O)[C@H](O)C3=C(C)[C@@H](OC(=O)[C@H](O)[C@@H](NC(=O)c4ccccc4)c4ccccc4)C[C@@](O)([C@@H](OC(=O)c4ccccc4)[C@H]21)C3(C)C` [10-Deacetyl-7-xylosyl paclitaxel]: 0% and 14%.
The matching figures for `O=C([O-])C1=C(CSc2nnnn2CS(=O)(=O)[O-])CS[C@@H]2[C@H](NC(=O)[C@H](O)c3ccccc3)C(=O)N12.[Na+].[Na+]` [Cefonicid (sodium)]: 0% and 2%.
On to Mogroside II-A, for which the “Percentage of motility inhibition 0 h” value under setting [1] was 0%. Also, under setting [2], the “Percentage of motility inhibition 24 h” value was 14%.
In the case of `CC(=O)O[C@H]1[C@H](O[C@H]2CC[C@]34C[C@]35CC[C@]3(C)[C@@H]([C@@]6(C)CC[C@@H](C(C)(C)O)O6)[C@@H](O)C[C@@]3(C)[C@@H]5C[C@H](O[C@@H]3O[C@H](CO)[C@@H](O)[C@H](O)[C@H]3O)[C@H]4C2(C)C)OC[C@@H](O)[C@@H]1O` [Astragaloside II], the “Percentage of motility inhibition 0 h” value under setting [1] is listed as 5%. The “Percentage of motility inhibition 24 h” value under setting [2] is recorded as 45%.
The matching figures for `CC(=O)O[C@H]1CC/C(C)=C/CC/C(C)=C/C[C@]2(C(C)C)CC[C@@]1(C)O2` [Incensole Acetate]: 9% and 17%.
As to `C[C@@]1(F)[C@H](O)[C@@H](CO)O[C@H]1n1ccc(=O)[nH]c1=O` [PSI‐6206], the “Percentage of motility inhibition 0 h” value under setting [1] was determined as 19%. For the same compound, the “Percentage of motility inhibition 24 h” value under setting [2] came out at 5%.
